Assay results as given in patent US10800792B2, “Inhibitors of Bruton's tyrosine kinase and method of their use” (JANSSEN PHARMACEUTICA NV, priority 2015, dated 2020).

Biological target: unphosphorylated-BTK kinase domain (UP-BTK), GST-tagged human BTK (389-659aa) (Homo sapiens (Human), UniProt Q06187)
Assay: BTK kinase Lanthascreen binding assay
Settings: pIC50 = negative log of the IC50 in molar; 60 minutes incubation, 50 nM Tracer 236
Procedure, shortened: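 Lanthascreen competition binding; test compound vs fluorescent tracer on unphosphorylated BTK. Output: pIC50 (−log IC50, M).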

unphosphorylated-BTK kinase domain (UP-BTK), GST-tagged human BTK (389-659aa), sequence (Q06187 389-659): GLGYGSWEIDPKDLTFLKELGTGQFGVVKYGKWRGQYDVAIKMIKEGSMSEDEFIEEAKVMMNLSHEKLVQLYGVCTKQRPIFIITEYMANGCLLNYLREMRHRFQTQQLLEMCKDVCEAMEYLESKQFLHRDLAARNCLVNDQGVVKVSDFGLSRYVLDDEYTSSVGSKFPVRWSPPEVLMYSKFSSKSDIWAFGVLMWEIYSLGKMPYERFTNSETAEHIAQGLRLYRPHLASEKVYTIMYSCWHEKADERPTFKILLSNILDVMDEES

BTK_I_binding pIC50 | SMILES
6.4 | C=CC(=O)N1CCC[C@@H](NC(=O)c2sc3nccc4c3c2NC(=O)N4c2ccccc2)C1 [Example 257, (R)—N-(1-Acryloylpiperidin-3-yl)-4-oxo-5-phenyl-4,5-dihydro-3H-1-thia-3,5,8-triazaacenaphthylene-2-carboxamide]
6.5 | Cc1cc(Oc2ccccc2)ccc1N1C(=O)Nc2c(C(=O)NC3CCNC(C)C3)sc3nccc1c23 (centres unmarked) [Example 258, 5-(2-methyl-4-phenoxyphenyl)-N-(2-methylpiperidin-4-yl)-4-oxo-4,5-dihydro-3H-1-thia-3,5,8-triazaacenaphthylene-2-carboxamide]
6.5 | CO[C@@H]1C[C@@H](NC(=O)c2sc3nccc4c3c2NC(=O)N4c2ccc(Oc3ccccc3)cc2)CN(C)C1 [Example 259, N-((3R,5R)-5-Methoxy-1-methylpiperidin-3-yl)-4-oxo-5-(4-phenoxyphenyl)-4,5-dihydro-3H-1-thia-3,5,8-triazaacenaphthylene-2-carboxamide]
6.5 | CC(C)=C(Cl)C(=O)N1CCC[C@@H](NC(=O)c2sc3nccc4c3c2NC(=O)N4c2ccc(Oc3ccccc3)cc2C)C1 [Example 260, (R)—N-(1-(2-chloro-3-methylbut-2-enoyl)piperidin-3-yl)-5-(2-methyl-4-phenoxyphenyl)-4-oxo-4,5-dihydro-3H-1-thia-3,5,8-triazaacenaphthylene-2-carboxamide]
6.5 | C/C=C(\F)C(=O)N1CCC[C@@H](NC(=O)c2sc3nccc4c3c2NC(=O)N4c2ccc(Oc3ccccc3)cc2C)C1 [Example 261, (R,Z)—N-(1-(2-Fluorobut-2-enol)piperidin-3-yl)-5-(2-methyl-4-phenoxyphenyl)-4-oxo-4,5-dihydro-3H-1-thia-3,5,8-triazaacenaphthylene-2-carboxamide]
6.4 | CC(C)=C(F)C(=O)N1CCC[C@@H](NC(=O)c2sc3nccc4c3c2NC(=O)N4c2ccc(Oc3ccccc3)cc2C)C1 [Example 263, (R)—N-(1-(2-Fluoro-3-methylbut-2-enoyl)piperidin-3-yl)-5-(2-methyl-4-phenoxyphenyl)-4-oxo-4,5-dihydro-3H-1-thia-3,5,8-triazaacenaphthylene-2-carboxamide]
6.4 | C=CC(=O)N1CC[C@@H](NC(=O)c2sc3nccc4c3c2NC(=O)N4c2ccc(S(F)(F)(F)(F)F)cc2C)C1 [Example 264, (R)—N-(1-Acryloylpyrrolidin-3-yl)-5-(2-methyl-4-(pentafluorothio)phenyl)-4-oxo-4,5-dihydro-3H-1-thia-3,5,8-triazaacenaphthylene-2-carboxamide]
6.4 | Cc1cc(Oc2ccccc2)ccc1N1C(=O)Nc2c(C(=O)NC[C@@H]3CCCN3C)sc3nccc1c23 [Example 265, (S)-5-(2-Methyl-4-phenoxyphenyl)-N-((1-methylpyrrolidin-2-yl)methyl)-4-oxo-4,5-dihydro-3H-1-thia-3,5,8-triazaacenaphthylene-2-carboxamide]
6.3 | Cc1cc(Oc2ccccc2)ccc1N1C(=O)Nc2c(C(=O)N[C@@H]3C[C@H](O)CN(C)C3)sc3nccc1c23 [Example 266, N-((3R,5S)-5-Hydroxy-1-methylpiperidin-3-yl)-5-(2-methyl-4-phenoxyphenyl)-4-oxo-4,5-dihydro-3H-1-thia-3,5,8-triazaacenaphthylene-2-carboxamide]
6.3 | CO[C@@H]1CNC[C@H](NC(=O)c2sc3nccc4c3c2NC(=O)N4c2ccc(Oc3ccccc3)cc2C)C1 [Example 268, N-((3R,5S)-5-Methoxypiperidin-3-yl)-5-(2-methyl-4-phenoxyphenyl)-4-oxo-4,5-dihydro-3H-1-thia-3,5,8-triazaacenaphthylene-2-carboxamide]
6.3 | Cc1cc(Oc2ccccc2)ccc1N1C(=O)Nc2c(C(=O)NC[C@@H]3CCCN3)sc3nccc1c23 [Example 269, (S)-5-(2-Methyl-4-phenoxyphenyl)-4-oxo-N-(pyrrolidin-2-ylmethyl)-4,5-dihydro-3H-1-thia-3,5,8-triazaacenaphthylene-2-carboxamide]
6.3 | C=CC(=O)N1CC[C@@H](NC(=O)c2sc3nccc4c3c2NC(=O)N4c2ccc(OC3CCOCC3)cc2C)C1 [Example 270, (R)—N-(1-Acryloylpyrrolidin-3-yl)-5-(2-methyl-4-((tetrahydro-2H-pyran-4-yl)oxy)phenyl)-4-oxo-4,5-dihydro-3H-1-thia-3,5,8-triazaacenaphthylene-2-carboxamide]
6.3 | C=CC(=O)N1CCC[C@@H](NC(=O)c2sc3nccc4c3c2NC(=O)N4c2ccc(C)cc2)C1 [Example 271, (R)—N-(1-Acryloylpiperidin-3-yl)-4-oxo-5-(p-tolyl)-4,5-dihydro-3H-1-thia-3,5,8-triazaacenaphthylene-2-carboxamide]
6.3 | Cc1cc(Oc2ccccc2)ccc1N1C(=O)Nc2c(C(=O)N[C@H]3CN(C)CC(F)(F)C3)sc3nccc1c23 [Example 272, (R)—N-(5,5-Difluoro-1-methylpiperidin-3-yl)-5-(2-methyl-4-phenoxyphenyl)-4-oxo-4,5-dihydro-3H-1-thia-3,5,8-triazaacenaphthylene-2-carboxamide]
6.3 | Cc1cc(Oc2ccccc2)ccc1N1C(=O)Nc2c(C(=O)NC3CN(C(C)C)C3)sc3nccc1c23 [Example 273, N-(1-Isopropylazetidin-3-yl)-5-(2-methyl-4-phenoxyphenyl)-4-oxo-4,5-dihydro-3H-1-thia-3,5,8-triazaacenaphthylene-2-carboxamide]
6.3 | Cc1cc(Oc2ccccc2)ccc1N1C(=O)Nc2c(C(=O)N[C@@H]3CCCN(C(=O)/C=C/C(C)(C)C)C3)sc3nccc1c23 [Example 274, (R,E)-N-(1-(4,4-Dimethylpent-2-enoyl)piperidin-3-yl)-5-(2-methyl-4-phenoxyphenyl)-4-oxo-4,5-dihydro-3H-1-thia-3,5,8-triazaacenaphthylene-2-carboxamide]
6.3 | Cc1cc(Oc2ccccc2)ccc1N1C(=O)Nc2c(C(=O)NCCN3CCOCC3)sc3nccc1c23 [Example 275, 5-(2-Methyl-4-phenoxyphenyl)-N-(2-morpholinoethyl)-4-oxo-4,5-dihydro-3H-1-thia-3,5,8-triazaacenaphthylene-2-carboxamide]
6.3 | Cc1cc(Oc2ccccc2)ccc1N1C(=O)Nc2c(C(=O)NC[C@H]3CCCN3)sc3nccc1c23 [Example 276, (R)-5-(2-Methyl-4-phenoxyphenyl)-4-oxo-N-(pyrrolidin-2-ylmethyl)-4,5-dihydro-3H-1-thia-3,5,8-triazaacenaphthylene-2-carboxamide]
6.2 | C/C=C(\Cl)C(=O)N1CCC[C@@H](NC(=O)c2sc3nccc4c3c2NC(=O)N4c2ccc(Oc3ccccc3)cc2C)C1 [Example 277, (R,Z)—N-(1-(2-Chlorobut-2-enoyl)piperidin-3-yl)-5-(2-methyl-4-phenoxyphenyl)-4-oxo-4,5-dihydro-3H-1-thia-3,5,8-triazaacenaphthylene-2-carboxamide]
6.2 | C=CC(=O)N1CCC[C@@H](NC(=O)c2sc3nccc4c3c2NC(=O)N4c2ccc(Oc3ccccc3)cc2C(F)(F)F)C1 [Example 278, (R)—N-(1-Acryloylpiperidin-3-yl)-4-oxo-5-(4-phenoxy-2-(trifluoromethyl)phenyl)-4,5-dihydro-3H-1-thia-3,5,8-triazaacenaphthylene-2-carboxamide]
